Reference: patent US9714244B2, “Substituted pyrido[4,3-d]pyrimidines as Wee-1 inhibitors” (ALMAC DISCOVERY LIMITED, priority 2013, dated 2017)

How the values were obtained:
[1] = CLint estimates using human liver microsomes; format: in vitro ADME; conditions: pH 7.4, read-out: HLM activity (HLM CLint)
Description: Method for the Determination of CLint Estimates Using Human Liver Microsomes
Test compounds (final concentration=1 μM; final DMSO concentration=0.1%) were incubated in 0.1M phosphate buffer pH 7.4 with human liver microsomes (0.5 mg of protein/mL) at 37° C. Reactions were started by addition of NADPH in 0.1M phosphate buffer pH 7.4 (final concentration 1 mM). 40 μL aliquots were removed at 2, 5, 10, 15, 20, 30, 40 and 50 min. Reactions were quenched in 80 μL of ice-cold methanol. Samples were subsequently frozen overnight then centrifuged at 3500 rpm for 20 min at 4° C. The supernatants were removed and transferred into analytical plates and analysed by LC/MS/MS.
All samples were analysed on a Waters Acquity I-Class coupled to a Waters Xevo TQD mass spectrometer. A Waters BEH C18 2.1×50 mm 1.7 μm column was used and mobile phases were water and methanol containing 0.1% formic acid as modifier. Analysis was by multiple reaction monitoring and conditions were optimised for each test compound.
From a plot of ln peak area against time, the gradient of the line is determined. Subsequently, half-life and intrinsic clearance are calculated using the following equations.

Wee-1 kinase = Wee-1 kinase (Homo sapiens (Human), UniProt P30291); assay: Measurement of Wee-1 kinase activity (ADP-Glo); format: biochemical; conditions: read-out: Wee-1 IC50 activity
Description: Method 1: Measurement of Wee-1 kinase activity
In the measurement of Wee-1 activity, a commercial peptide Poly(Lys Tyr(4:1)) hydrobromide was purchased from Sigma Aldrich and used as the substrate. Activated Wee-1 kinase was purchased from Invitrogen (PV3817) and an ADP-Glo luminescent kit was purchased from Promega.
All reactions took place in […] volumes in reaction buffer containing 40 mM Tris-HCl and 20 mM magnesium chloride, supplemented with 0.1 mg/mL bovine serum albumin and 2 mM DTT. Compounds were serially diluted in buffer and 5 μL of each concentration pipetted into a white 384 well plate (Sigma Aldrich M6186). A 5 μL aliquot of the Wee-1 enzyme was added to each well and the plate centrifuged for 1 min to ensure mixing of the enzyme and inhibitor.
The plate was incubated at room temperature for 30 minutes before the addition of 2.0 μg/mL of substrate and 30 μM ATP in a 5 μL aliquot. The plate was centrifuged for one minute and incubated for 1 h at RT.
15 μL of ADP-Glo stop reagent was added to each well to quench the reaction and deplete unconverted ATP. The plate was incubated for a further 40 min in the dark at RT.
30 μL of ADP-Glo kinase detection reagent was added to each well, converting ADP to ATP, catalysing the generation of luciferin by luciferase. The plate was shaken for 1 min, and incubated in the dark for an additional hour.
Luminescence from each well was detected using the Biotek Synergy4 HD plate reader and the percentage inhibition of kinase activity calculated for each inhibitor tested. Positive (kinase only) and negative (no kinase) controls were added to each plate to ensure specific interaction of kinase and inhibitor. The IC50 concentration for each inhibitor was calculated by plotting the percentage kinase inhibition against concentration of inhibitor and the curve generated by non-linear regression fitting.

[2] = tested on: phospho-cdc2 (Tyr15) in HT-29 cells; assay: Effect on phosphorylation of cdc2 at Tyr15 in HT-29 cells (PathScan ELISA); format: cell-based; conditions: Homo sapiens, HT-29, 8 h; HT29 cells, eight hours incubation; read-out: HT29 pCDC2 activity
Description: Method 2: Determining the effect of compounds on the phosphorylation of cdc2 at Tyr15
The colorectal cancer cell lines HT-29 and HCT-116 were purchased from the ATCC and routinely maintained in McCoy's Medium (Invitrogen) supplemented with 10% Foetal Calf Serum.
The cells were trypsinised from their growing vessel and counted, 100 μL of cell suspension containing 6000 cells was pipetted into black 96 well Co-star plates and incubated overnight to allow adherence to the surface at a temperature of 37° C. and an atmosphere of 5% CO2. Test compounds were formulated in DMSO and diluted in foetal calf serum supplemented medium. Incubating medium was removed by aspiration and diluted drug supplemented medium added to each well.
The plate was returned to the incubator for an additional eight hours at 37° C. and an atmosphere of 5% CO2. Post incubation, the drug supplemented medium was aspirated from each well and the cells were washed once in ice-cold phosphate buffered saline (PBS). 100 μL of cell lysis buffer (Cell Signalling Technologies #9803) containing 20 mM Tris, 150 mM NaCl, 1 mM EDTA, 1 mM EGTA, 1% Triton-X100, 2.5 mM sodium pyrophosphate, 1 mM glycerophosphate, 1 mM Na3VO4 and 1 μg/mL leupeptin was added to each well of the 96 well plate and incubated at 4° C. for 30 min. The samples on the plate were snap frozen at −80° C. until required.
Immediately before the continuation of the assay, the sample plate was thawed and centrifuged at 4° C. for 10 min and the supernatant transferred to secondary tubes or 96 well plate.
Cell supernatant was mixed in a ratio of 1:1 with sample dilutent buffer and vortexed for one minute. 100 μL of diluted sample was pipetted into pre-coated plates containing a rabbit polyclonal antibody for phospho-cdc2 (Tyr15) (Cell Signalling Technologies PathScan kit #7176). The plate was sealed and incubated overnight at 4° C.
The plate seal was removed and the well contents aspirated, followed by 3×5 min washes with 200 μL of diluted wash buffer. Between each wash the plate was tapped firmly onto blotting paper to ensure the removal of all kit solution. 100 μL of kit detection antibody was added to each well and the plate re-sealed and incubated at 37° C. for 1 h. Post incubation the plate was washed and processed in a similar manner to that previously described.
100 μL of horseradish peroxidise-linked secondary antibody was added to each test well, the plate sealed and incubated for thirty minutes at 37° C. Post incubation, the plate was washed as previously stated, followed by the addition of 100 μL of 3,3′,5,5′ tetramethylbenzidine (TMB reagent). The plate was sealed and incubated at RT for 30 min.
100 μL of stop solution was added to each well and the underside of the plate wiped with a lint-free tissue, prior to spectrophotometric determination. Absorbance from each well was read at 450 nm within 30 min of the addition of the stop solution.
The percentage of phospho-cdc2 was calculated compared to DMSO control and plotted versus the concentration of inhibitor using GraphPad Prism. Data was fitted using non-linear regression analysis and IC50 values generated.

Sequence of Wee-1 kinase (P30291 whole entry): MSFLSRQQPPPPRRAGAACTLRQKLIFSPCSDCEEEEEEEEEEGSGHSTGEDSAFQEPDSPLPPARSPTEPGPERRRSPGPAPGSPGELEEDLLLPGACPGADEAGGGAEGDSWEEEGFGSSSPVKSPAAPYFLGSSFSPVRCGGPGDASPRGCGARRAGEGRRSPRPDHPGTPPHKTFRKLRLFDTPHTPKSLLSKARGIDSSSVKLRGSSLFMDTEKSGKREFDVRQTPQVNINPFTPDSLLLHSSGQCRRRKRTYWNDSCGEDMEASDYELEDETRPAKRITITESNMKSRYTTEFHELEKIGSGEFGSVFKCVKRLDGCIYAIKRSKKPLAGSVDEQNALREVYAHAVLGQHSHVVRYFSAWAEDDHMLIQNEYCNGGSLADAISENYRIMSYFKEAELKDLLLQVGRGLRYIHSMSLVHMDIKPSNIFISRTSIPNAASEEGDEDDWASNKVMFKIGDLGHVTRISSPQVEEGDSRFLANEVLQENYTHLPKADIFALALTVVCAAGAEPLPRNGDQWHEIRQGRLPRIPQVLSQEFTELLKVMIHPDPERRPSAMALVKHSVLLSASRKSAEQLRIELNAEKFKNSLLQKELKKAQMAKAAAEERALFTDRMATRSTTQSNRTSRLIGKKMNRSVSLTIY

Structure (SMILES)	microsomal CLint at 1 μM [1] [µL/min/mg]	IC50 (Wee-1 kinase) [nM]	IC50 [2] [nM]
O=c1c2cnc(Nc3ccc(N4CCNCC4)cc3)nc2ccn1-c1cccnc1Cl [Example 3, 6-(2-Chloropyridin-3-yl)-2-((4-(piperazin-1-yl)phenyl)amino)pyrido[4,3-d]pyrimidin-5(6H)-one]	≤ 20	> 200	–
CCN(CC)CCOc1ccc(Nc2ncc3c(=O)n(-c4c(Cl)cccc4Cl)ccc3n2)cc1 [Example 4, 6-(2,6-Dichlorophenyl)-2-((4-(2-(diethylamino)ethoxy)phenyl)amino)pyrido[4,3-d]pyrimidin-5(6H)-one]	> 20	–	100 to 1000
CC(=O)N1CCN(c2ccc(Nc3ncc4c(=O)n(-c5c(Cl)cccc5Cl)ccc4n3)cc2)CC1 [Example 5, 2-((4-(4-Acetylpiperazin-1-yl)phenyl)amino)-6-(2,6-dichlorophenyl)pyrido[4,3-d]pyrimidin-5(6H)-one]	≤ 20	10 to 200	100 to 1000
O=c1c2cnc(Nc3ccc(N4CCS(=O)(=O)CC4)cc3)nc2ccn1-c1c(Cl)cccc1Cl [Example 6, 6-(2,6-Dichlorophenyl)-2-((4-(1,1-dioxidothiomorpholino)phenyl)amino)pyrido[4,3-d]pyrimidin-5(6H)-one]	> 20	–	100 to 1000
O=c1c2cnc(Nc3ccc(N4CCNCC4)cc3)nc2c(Br)cn1-c1c(Cl)cccc1Cl [Example 9, 8-Bromo-6-(2,6-dichlorophenyl)-2-((4-(piperazin-1-yl)phenyl)amino)pyrido[4,3-d]pyrimidin-5(6H)-one]	≤ 20	< 10	100 to 1000
Cc1cc(Nc2ncc3c(=O)n(-c4c(Cl)cccc4Cl)cc(C#CCO)c3n2)ccc1N1CCNCC1 [Example 14, 6-(2,6-Dichlorophenyl)-8-(3-hydroxyprop-1-yn-1-yl)-2-((3-methyl-4-(piperazin-1-yl)phenyl)amino)pyrido[4,3-d]pyrimidin-5(6H)-one]	≤ 20	< 10	≤ 100
CN1CCN(c2ccc(Nc3ncc4c(=O)n(-c5c(Cl)cccc5Cl)ccc4n3)cc2)CC1 [Example 15, 6-(2,6-Dichlorophenyl)-2-((4-(4-methylpiperazin-1-yl)phenyl)amino)pyrido[4,3-d]pyrimidin-5(6H)-one]	> 20	–	100 to 1000
O=c1c2cnc(Nc3ccc(N4CCN(CCO)CC4)cc3)nc2ccn1-c1c(Cl)cccc1Cl [Example 21, 6-(2,6-Dichlorophenyl)-2-((4-(4-(2-hydroxyethyl)piperazin-1-yl)phenyl)amino)pyrido[4,3-d]pyrimidin-5(6H)-one]	> 20	< 10	≤ 100
NCC#Cc1cn(-c2c(Cl)cccc2Cl)c(=O)c2cnc(Nc3ccc(N4CCOCC4)cc3)nc12 [Example 22, 8-(3-Aminoprop-1-yn-1-yl)-6-(2,6-dichlorophenyl)-2-((4-morpholinophenyl)amino)pyrido[4,3-d]pyrimidin-5(6H)-one]	> 20	< 10	≤ 100
O=c1c2cnc(Nc3ccc(N4CCNCC4)cc3)nc2c(-c2cccnc2)cn1-c1c(Cl)cccc1Cl [Example 23, 6-(2,6-Dichlorophenyl)-2-((4-(piperazin-1-yl)phenyl)amino)-8-(pyridin-3-yl)pyrido[4,3-d]pyrimidin-5(6H)-one]	> 20	< 10	≤ 100
Cc1cc(Nc2ncc3c(=O)n(-c4ccccc4Cl)ccc3n2)ccc1N1CCNCC1 [Example 24, 6-(2-Chlorophenyl)-2-((3-methyl-4-(piperazin-1-yl)phenyl)amino)pyrido[4,3-d]pyrimidin-5(6H)-one]	≤ 20	< 10	100 to 1000
NCc1cccc(Nc2ncc3c(=O)n(-c4c(Cl)cccc4Cl)ccc3n2)c1 [Example 25, 2-((3-(Aminomethyl)phenyl)amino)-6-(2,6-dichlorophenyl)pyrido[4,3-d]pyrimidin-5(6H)-one]	> 20	–	≥ 1000
CN1CCN(c2cccc(Nc3ncc4c(=O)n(-c5c(Cl)cccc5Cl)ccc4n3)c2)CC1 [Example 26, 6-(2,6-Dichlorophenyl)-2-((3-(4-methylpiperazin-1-yl)phenyl)amino)pyrido[4,3-d]pyrimidin-5(6H)-one]	> 20	–	≥ 1000
O=c1c2cnc(Nc3ccc(N4CCNCC4)c(Cl)c3)nc2ccn1-c1c(Cl)cccc1Cl [Example 27, 2-((3-Chloro-4-(piperazin-1-yl)phenyl)amino)-6-(2,6-dichlorophenyl)pyrido[4,3-d]pyrimidin-5(6H)-one]	≤ 20	< 10	100 to 1000
CC(=O)Nc1cn(-c2c(Cl)cccc2Cl)c(=O)c2cnc(Nc3ccc(N4CCNCC4)cc3)nc12 [Example 28, N-(6-(2,6-Dichlorophenyl)-5-oxo-2-((4-(piperazin-1-yl)phenyl)amino)-5,6-dihydropyrido[4,3-d]pyrimidin-8-yl)acetamide]	–	> 200	–
O=c1c2cnc(Nc3ccc(N4CCNCC4)c(F)c3)nc2ccn1-c1c(Cl)cccc1Cl [Example 29, 6-(2,6-Dichlorophenyl)-2-((3-fluoro-4-(piperazin-1-yl)phenyl)amino)pyrido[4,3-d]pyrimidin-5(6H)-one]	≤ 20	< 10	≤ 100
CN1CCN(c2ccc(Nc3ncc4c(=O)n(-c5c(Cl)cccc5Cl)ccc4n3)cn2)CC1 [Example 31, 6-(2,6-Dichlorophenyl)-2-((6-(4-methylpiperazin-1-yl)pyridin-3-yl)amino)pyrido[4,3-d]pyrimidin-5(6H)-one]	> 20	–	100 to 1000
CN1CCN(C(=O)c2ccc(Nc3ncc4c(=O)n(-c5c(Cl)cccc5Cl)ccc4n3)cc2)CC1 [Example 32, 6-(2,6-Dichlorophenyl)-2-((4-(4-methylpiperazine-1-carbonyl)phenyl)amino)pyrido[4,3-d]pyrimidin-5(6H)-one]	–	10 to 200	100 to 1000
